This is an account of results in patent publication US10626081B2, “Farnesoid X receptor agonists and uses thereof” (Metacrine, Inc., priority 2015, dated 2020).

The test addresses T1, FXR (Homo sapiens, UniProt Q96RI1).
T1 construct: expressed in transfected cells; host or cells: CV-1 cells
T1 sequence (Q96RI1 1-486): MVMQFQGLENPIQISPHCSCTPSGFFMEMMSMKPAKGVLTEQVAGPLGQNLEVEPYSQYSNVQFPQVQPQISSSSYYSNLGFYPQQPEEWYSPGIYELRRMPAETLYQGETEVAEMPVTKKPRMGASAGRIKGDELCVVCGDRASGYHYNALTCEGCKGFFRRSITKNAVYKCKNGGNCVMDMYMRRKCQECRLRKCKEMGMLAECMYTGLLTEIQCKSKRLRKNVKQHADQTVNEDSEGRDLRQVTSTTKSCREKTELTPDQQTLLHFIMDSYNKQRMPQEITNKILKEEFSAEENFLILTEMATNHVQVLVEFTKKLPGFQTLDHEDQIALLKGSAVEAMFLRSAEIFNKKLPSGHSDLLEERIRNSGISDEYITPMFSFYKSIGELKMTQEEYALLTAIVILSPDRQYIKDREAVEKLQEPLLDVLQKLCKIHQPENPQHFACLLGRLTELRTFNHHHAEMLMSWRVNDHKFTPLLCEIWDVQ
T1 sequence (P19793 1-462 partner): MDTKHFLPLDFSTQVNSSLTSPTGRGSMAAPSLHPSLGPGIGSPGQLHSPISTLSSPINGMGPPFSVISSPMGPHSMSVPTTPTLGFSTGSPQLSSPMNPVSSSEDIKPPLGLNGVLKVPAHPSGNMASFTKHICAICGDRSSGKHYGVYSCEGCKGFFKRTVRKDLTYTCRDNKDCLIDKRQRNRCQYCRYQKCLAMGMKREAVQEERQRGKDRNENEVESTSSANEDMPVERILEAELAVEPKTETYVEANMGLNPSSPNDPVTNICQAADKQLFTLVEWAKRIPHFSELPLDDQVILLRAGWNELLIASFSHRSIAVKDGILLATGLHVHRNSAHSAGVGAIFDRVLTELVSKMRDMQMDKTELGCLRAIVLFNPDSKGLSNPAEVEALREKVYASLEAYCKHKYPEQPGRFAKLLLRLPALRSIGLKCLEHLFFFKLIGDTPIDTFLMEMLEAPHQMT
As to the kind of experiment: In Vitro FXR Assay (TK): TK-ECRE-luc reporter in transfected CV-1 cells. In kind it is cell-based. The following applies: CV-1 cells transfected with hFXR, hRXR, 18 h incubation, luminescence. How it is done: Example B-2: In Vitro FXR Assay (TK)
CV-1 cells were seeded at a density of 2,000,000 cells in a T175 flask with DMEM+10% charcoal double-stripped FBS and incubated at 37° C. in 5% CO2 for 18 h (O/N).
After 18 h of incubation, the medium in the T175 flask was changed with fresh DMEM+10% charcoal super-stripped serum. In a polypropylene tube, 2500 μL OptiMEM (Life Technologies, Cat #31985-062) was combined with expression plasmids for hFXR, hRXR, TK-ECRE-luc and pCMX-YFP. The tube was then briefly vortexed and incubated at room temperature for 5 minutes. Transfection reagent (X-tremeGENE HP from Roche, Cat #06 366 236 001) was added to the OptiMEM/plasmid mixture vortexed and incubated at room temperature for 20 minutes. Following incubation, the transfection reagent/DNA mixture complex was added to cells in the T175 flask and the cells were incubated at 37° C. in 5% CO2 for 18 h (O/N).
Compounds were serially diluted in DMSO and added to transfected CV-1 cells. The cells were then incubated for 18 hrs. The next day cells were lysed and examined for luminescence.

What is called EC50 is the concentration giving half of the maximal effect. A low value points to an effect from little substance.

Turning to `COC(=O)/C=C/c1cccc(N(Cc2ccc(-c3ccc(OC)c(C)c3)cc2)C(=O)C2CCN(S(C)(=O)=O)CC2)c1` [62.17, (E)-Methyl 3-(3-(N-((4′-methoxy-3′-methyl-[1,1′-biphenyl]-4-yl)methyl)-1-(methylsulfonyl)piperidine-4-carboxamido)phenyl)acrylate], the EC50 was in the range of 1 to 10 µM. In the case of `COC(=O)/C=C/c1cccc(N(Cc2ccc(-c3ccc4c(c3)nnn4C)cc2)C(=O)C2CCCCC2)c1` [75.1, (E)-Methyl 3-(3-(N-(4-(1-methyl-1H-benzo[d][1,2,3]triazol-5-yl)benzyl)cyclohexanecarboxamido)phenyl) acrylate], the EC50 was in the range of 1 to 10 µM. `COC(=O)/C=C/c1cccc(N(Cc2ccc(-c3ccc(N4CCC4)cc3)cc2)C(=O)C2CCCCC2)c1` [75.2, (E)-Methyl 3-(3-(N-((4′-(azetidin-1-yl)-[1,1′-biphenyl]-4-yl)methyl)cyclohexanecarboxamido)phenyl) acrylate] came in with an EC50 of 1 to 10 µM. `COC(=O)/C=C/c1cccc(N(Cc2ccc(-c3cnc(N(C)C)nc3)cc2)C(=O)C2CCCCC2)c1` [75.3, (E)-Methyl 3-(3-(N-(4-(2-(dimethylamino)pyrimidin-5-yl)benzyl)cyclohexanecarboxamido)phenyl) acrylate] gave an EC50 of at most 1 µM.

Consider `COC(=O)/C=C/c1cccc(N(Cc2ccc(-c3cnc(N(C)C)cn3)cc2)C(=O)C2CCCCC2)c1` [75.4, (E)-Methyl 3-(3-(N-(4-(5-(dimethylamino)pyrazin-2-yl)benzyl)cyclohexanecarboxamido)phenyl) acrylate], for which the concentration giving a half-maximal response (EC50) lay within 1 to 10 µM. Molecule `COC(=O)/C=C/c1cccc(N(Cc2ccc(-c3ccc(N(C)C)nn3)cc2)C(=O)C2CCCCC2)c1` [75.5, (E)-Methyl 3-(3-(N-(4-(6-(dimethylamino)pyridazin-3-yl)benzyl)cyclohexanecarboxamido)phenyl) acrylate] gave an EC50 of 1 to 10 µM.

On to `COC(=O)/C=C/c1cccc(N(Cc2ccc(-c3ccc(N(C)S(C)(=O)=O)cc3)cc2)C(=O)C2CCCCC2)c1` [75.6, (E)-Methyl 3-(3-(N-((4′-(N-methylmethylsulfonamido)-[1,1′-biphenyl]-4-yl)methyl)cyclohexanecarboxamido)phenyl) acrylate], for which the EC50 was in the range of 1 to 10 µM. With `COC(=O)/C=C/c1cccc(N(Cc2ccc(-c3ccc(S(C)(=O)=O)c(F)c3)cc2)C(=O)C2CCCCC2)c1` [75.7, (E)-Methyl 3-(3-(N-((3′-fluoro-4′-(methylsulfonyl)-[1,1′-biphenyl]-4-yl)methyl)cyclohexanecarboxamido)phenyl) acrylate] the figure was above 10 µM; with `COC(=O)/C=C/c1cccc(N(Cc2ccc(-c3ccc(S(C)(=O)=O)cc3F)cc2)C(=O)C2CCCCC2)c1` [75.8, (E)-Methyl 3-(3-(N-((2′-fluoro-4′-(methylsulfonyl)-[1,1′-biphenyl]-4-yl)methyl)cyclohexanecarboxamido)phenyl) acrylate], 1 to 10 µM; with `COC(=O)/C=C/c1cccc(N(Cc2ccc(-c3ccc4ncsc4c3)cc2)C(=O)C2CCCCC2)c1` [75.9, (E)-Methyl 3-(3-(N-(4-(benzo[d]thiazol-6-yl)benzyl)cyclohexanecarboxamido)phenyl) acrylate], 1 to 10 µM.

For `COC(=O)/C=C/c1cccc(N(Cc2ccc(-c3ccc(S(C)(=O)=O)c(Cl)c3)cc2)C(=O)C2CCCCC2)c1` [75.10, (E)-Methyl 3-(3-(N-((3′-chloro-4′-(methylsulfonyl)-[1,1′-biphenyl]-4-yl)methyl)cyclohexanecarboxamido)phenyl) acrylate], the 50% effective concentration (EC50) is above 10 µM.

As for `COC(=O)/C=C/c1cccc(N(Cc2ccc(-c3ccc4ocnc4c3)cc2)C(=O)C2CCCCC2)c1` [75.11, (E)-Methyl 3-(3-(N-(4-(benzo[d]oxazol-5-yl)benzyl)cyclohexanecarboxamido)phenyl) acrylate], the EC50 lay within 1 to 10 µM. With `COC(=O)/C=C/c1cccc(N(Cc2ccc(-c3ccc4ncoc4c3)cc2)C(=O)C2CCCCC2)c1` [75.12, (E)-Methyl 3-(3-(N-(4-(benzo[d]oxazol-6-yl)benzyl)cyclohexanecarboxamido)phenyl) acrylate] the figure was 1 to 10 µM; with `COC(=O)/C=C/c1cccc(N(Cc2ccc(-c3ccc4cnoc4c3)cc2)C(=O)C2CCCCC2)c1` [75.13, (E)-Methyl 3-(3-(N-(4-(benzo[d]isoxazol-6-yl)benzyl)cyclohexanecarboxamido)phenyl) acrylate], above 10 µM; with `COC(=O)/C=C/c1cccc(N(Cc2ccc(-c3ccc4scnc4c3)cc2)C(=O)C2CCCCC2)c1` [75.14, (E)-Methyl 3-(3-(N-(4-(benzo[d]thiazol-5-yl)benzyl)cyclohexanecarboxamido)phenyl) acrylate], at most 1 µM.

On to `COC(=O)/C=C/c1cccc(N(Cc2ccc(-c3ccc4oncc4c3)cc2)C(=O)C2CCCCC2)c1` [75.15, (E)-Methyl 3-(3-(N-(4-(benzo[d]isoxazol-5-yl)benzyl)cyclohexanecarboxamido)phenyl) acrylate], for which the concentration giving a half-maximal response (EC50) is above 10 µM. For `COC(=O)/C=C/c1cccc(N(Cc2ccc(-c3ccc4cnsc4c3)cc2)C(=O)C2CCCCC2)c1` [75.16, (E)-Methyl 3-(3-(N-(4-(benzo[d]isothiazol-6-yl)benzyl)cyclohexanecarboxamido)phenyl) acrylate], the half-maximal effective concentration (EC50) was 1 to 10 µM. In turn, `COC(=O)/C=C/c1cccc(N(Cc2ccc(-c3ccc4sncc4c3)cc2)C(=O)C2CCCCC2)c1` [75.17, (E)-Methyl 3-(3-(N-(4-(benzo[d]isothiazol-5-yl)benzyl)cyclohexanecarboxamido)phenyl) acrylate] came in with an EC50 of 1 to 10 µM. `COC(=O)/C=C/c1cccc(N(Cc2ccc(-c3ccc4c(c3)c(F)nn4C)cc2)C(=O)C2CCCCC2)c1` [75.18, (E)-Methyl 3-(3-(N-(4-(3-fluoro-1-methyl-1H-indazol-5-yl)benzyl)cyclohexanecarboxamido)phenyl) acrylate] displayed an EC50 of at most 1 µM. Under `COC(=O)/C=C/c1cccc(N(Cc2ccc(-c3ccc4c(C)nsc4c3)cc2)C(=O)C2CCCCC2)c1` [75.19, (E)-Methyl 3-(3-(N-(4-(3-methylbenzo[d]isothiazol-6-yl)benzyl)cyclohexanecarboxamido)phenyl) acrylate] stands at most 1 µM; under `CN(C)c1ccc(-c2ccc(CN(C(=O)C3CCCCC3)c3cccc(/C=C/C(=O)OC4CCCCC4)c3)cc2)cc1` [86.1, (E)-Cyclohexyl 3-(3-(N-((4′-(dimethylamino)-[1,1′-biphenyl]-4-yl)methyl)cyclohexanecarboxamido)phenyl) acrylate], above 10 µM. Under `CC(C)COC(=O)/C=C/c1cccc(N(Cc2ccc(-c3ccc(N(C)C)cc3)cc2)C(=O)C2CCCCC2)c1` [86.2, (E)-Isobutyl 3-(3-(N-((4′-(dimethylamino)-[1,1′-biphenyl]-4-yl)methyl)cyclohexanecarboxamido)phenyl) acrylate] stands above 10 µM; under `COCCOC(=O)/C=C/c1cccc(N(Cc2ccc(-c3ccc(N(C)C)cc3)cc2)C(=O)C2CCCCC2)c1` [86.3, (E)-2-Methoxyethyl 3-(3-(N-((4′-(dimethylamino)-[1,1′-biphenyl]-4-yl)methyl)cyclohexanecarboxamido)phenyl) acrylate], 1 to 10 µM. With `CN(C)CCOC(=O)/C=C/c1cccc(N(Cc2ccc(-c3ccc(N(C)C)cc3)cc2)C(=O)C2CCCCC2)c1` [86.4, (E)-2-(Dimethylamino)ethyl 3-(3-(N-((4′-(dimethylamino)-[1,1′-biphenyl]-4-yl)methyl)cyclohexanecarboxamido)phenyl) acrylate] the figure was above 10 µM; with `CN(C)c1ccc(-c2ccc(CN(C(=O)C3CCCCC3)c3cccc(/C=C/C(=O)OCC4CCCO4)c3)cc2)cc1` (stereo not shown) [86.5, (E)-(Tetrahydrofuran-2-yl) methyl 3-(3-(N-((4′-(dimethylamino)-[1,1′-biphenyl]-4-yl)methyl)cyclohexanecarboxamido)phenyl) acrylate], above 10 µM.
